According to article PMC4747989, “Bio-conjugation of antioxidant peptide on surface-modified gold nanoparticles: a novel approach to enhance the radical scavenging property in cancer cell” (Cancer Nanotechnology, 2016):
Ends that are not written are not given here.

Columns and labels:
[1] = test system: MIOM1 (Muller-glial) non-neoplastic cells; test: Cytotoxicity (MTT) assay, MIOM1; format: cell-based, human; conditions: 24 and 48 h, 10-100 µM
Protocol: (§1) Y79 retinoblastoma and MIOM1 cells were seeded at 5 × 10^3 cells/well in 96-well plates and incubated at 37 °C overnight. The cells were then treated with varying concentrations (10, 30, 60, and 100 µM) of Pep-A and Pep-B in a fresh medium and incubated for specific time periods (24 and 48 h). At the end of the incubation, 10 µl of MTT [3-(4, 5-dimethylthiazol-2-yl)-2, 5-diphenyltetrazolium bromide; 5 mg/ml] was added to the cells with fresh medium (100 µl) and incubated at 37 °C until formazan crystals were formed. The formazan crystals were dissolved in 100 µl of DMSO, and the reading was taken at 570 nm (BioTek, ELISA, USA). Cell viability was calculated as Test OD/Control OD × 100.

Y79 cells [2] = test: Internalization by fluorescence microscopy; format: cell-based; conditions: Y79 RB cells; FITC-labeled Pep-A, R6G dye-doped GNPs and GNPs-Pep-A; 4 h (method), 3 h (Fig. 5 legend)
Protocol: (§2) The Y79 cells were seeded on the lysine (0.01 mg/ml)-coated glass slide. The cells were cultured overnight and treated with different concentrations (50 or 100 µM) of FITC-tagged Pep-A for 4 h, for studying the localization and internalization of the peptide by fluorescence microscopy. The FITC-labeled peptide A molecules (molecular mass 771.2) were custom synthesized (CPS 1468-1, custom peptide synthesis, USV limited India) with ~95 % purity obtained by HPLC method. The GNPs and GNPs-Pep-A conjugates were doped with the R6G dye as described by Kalmodia et al., for the internalization study (Kalmodia et al. [2013]). The internalization of the peptide, R6G-doped GNPs and GNPs-Pep-A after 4 h was qualitatively detected by Zeiss LSM, 710 laser microscope supplied by Axio vision (Germany). […] Y79 cells were seeded at 2 × 10^5 cells/well in six-well plates and treated with 50 and 100 µM concentrations of Pep-A for 4 h. The cells were then spun at 1500 rpm for 5 min, washed with PBS buffer, and then resuspended in FACS buffer. The cells were then analyzed for uptake of the peptide using FACS Calibur (BD Biosciences, CA, USA) by means of CELL QUEST PRO software. The fluorescence of FITC-stained cells was excited with an argon laser at 488 nm, and the emissions were detected at 530 nm. The overlay graph and scattered plot were used to confirm the FITC positive cell population.

Y79 retinoblastoma cells = test: Cytotoxicity (MTT) assay, Y79; format: cell-based; conditions: 24 and 48 h, 10-100 µM
Protocol: as §1
Cytotoxic effects of GNPs and Pep-A were evaluated by MTT assay as per the protocol described in “Cytotoxicity assay” section. Antioxidant effects of GNPs-Pep-A, bioconjugate were evaluated by measuring the cellular ROS and SOD enzyme activity by similar methods as described in “Measurement of intracellular ROS levels on peptide treatment using 2′, 7′ dichlorodihydrofluorescein (DCF) assay” and “SOD activity measurement” sections, respectively. […] Total RNA was isolated using Trizol, and concentration of RNA was quantified using a Nanodrop (Biospec-Nano,Shimadzu, Biotech, Japan). […] Quantification of target gene expression was performed in triplicate in a 20-µl reaction mixture containing 0.1 µg of cDNA, specific primers (Table 1), and SYBR green reagent in 96-well plates on a real-time PCR system (Applied Biosystems, Singapore). GAPDH and β actin were used as internal controls, and the detection was carried out by measuring the binding of fluorescence dye SYBR green to double-stranded DNA. After cycling, relative quantitation of the tested gene cDNA against the internal control was performed using the ΔCT method. The relative amount of gene-specific mRNA to housekeeping gene was calculated using 2^−ΔΔCt, where Ct, the number of cycles at which amplification reaches a threshold, is determined using SDS software version 1.3.

Y79 cells [3] = test: Peptide uptake by flow cytometry (FACS); format: cell-based; conditions: 4 h; for FITC positive population in M2: Y79 RB cells, flow cytometry; for M1 population: Y79 cells, histogram statistic in text, in % (unit assumed)
Protocol: as §2

| Substance | cytotoxicity to non-cancerous MIO-M1 cells (in words) [1] | cytotoxicity to non-cancerous MIO-M1 cells (in words) ([1]; listed as pep-A) | internalization by fluorescence microscopy (in words) (Y79 cells [2]) | cytotoxicity to Y79 cells (in words) (Y79 retinoblastoma cells) | cytotoxicity to Y79 cells (in words) (Y79 retinoblastoma cells; listed as pep-A) | uptake into the Y79 cells (in words) (Y79 cells [3]; FACS, 50 and 100 µM) | FITC positive population in M2 (Y79 cells [3]; 50 µM FITC-tagged Pep-A, Fig. 4b) | FITC positive population in M2 (Y79 cells [3]; 100 µM FITC-tagged Pep-A, Fig. 4c) | M1 population (Y79 cells [3]; 50 µM of Pep-A, control 99.99) | M1 population (Y79 cells [3]; second mention printed as 50 µM of Pep-A) |
| --- | --- | --- | --- | --- | --- | --- | --- | --- | --- | --- |
| PHCKRM [Pep-A, Pro-His-Cys-Lys-Arg-Met] | no cytotoxicity | no toxicity | internalization | no cytotoxicity | no toxicity | concentration-dependent uptake | 99% | 99% | 99.97 | 99.95 |
| TRNYYVRAVL [Pep-B, Thr-Arg-Asn-Tyr-Tyr-Val-Arg-Ala-Val-Leu] | no cytotoxicity | – | – | no cytotoxicity | – | – | – | – | – | – |
